Data as given in patent US5188830A, “Methods for thrombolytic therapy” (Merck & Co., Inc., priority 1990, dated 1993).

Test system: blood clots
Assay: in vitro clot lysis assay (release of solubilized 125I-fibrin-derived fragments, lysis initiated by TPA)
Procedure: In the assay, whole blood or plasma is charged with ^125 I-fibrinogen. Thrombin is added to initiate clot formation and subsequently incubated for 2 hours to complete the cross-linking by endogenous Factor XIII. Factor XIIIa inhibitor is added prior to clot initiation or at various times during the 2-hour incubation. At the end of this period, the labelled clot is washed and lysis is initiated by exogenous tissue plasminogen activator (TPA). Exogenous plasminogen is employed in some experiments. Endogenous plasminogen is used for others. Clot dissolution as a function of time is monitored by the release of solubilized ^125 I-fibrin-derived fragments.
In FIGS. 1 and 2, the open symbols indicate absence of cerulenin and the closed symbols indicate the presence of 200 μM cerulenin at the time of clot formation. Clot lysis is conducted in buffer, pH 7.5; 5 ng/mL TPA represents approximate physiologic concentration. 50 to […] represents pharmacologic concentration range. […] FIG. 2 studies employed glu-plasminogen levels at approximately 10 percent physiologic level (12 μ/mL).

C/C=C/C/C=C/CCC(=O)[C@H]1O[C@H]1C(N)=O [Cerulenin, 3-(1-oxo-4,7-nonadienyl)-oxiranecarboxamide]
rates and extents of clot lysis (200 μM cerulenin at clot formation, no exogenous plasminogen, TPA at physiological and pharmacological levels, buffer pH 7.5 (FIG. 1)): enhanced rates and extents of lysis | rate of TPA catalyzed clot lysis (200 μM cerulenin, 12 μg/mL exogenous glu-plasminogen, TPA, buffer pH 7.5 (FIG. 2)): lysis rates were further enhanced
